In US9029377B2, “Platelet-activating factor receptor antagonists” (Merck Sharp & Dohme Corp., priority 2009, dated 2015):

The compounds below were run against PAFR (Homo sapiens, UniProt P25105) (assay: PAF Binding Assay (PAFR binding)).
Sequence of PAFR (P25105 whole entry): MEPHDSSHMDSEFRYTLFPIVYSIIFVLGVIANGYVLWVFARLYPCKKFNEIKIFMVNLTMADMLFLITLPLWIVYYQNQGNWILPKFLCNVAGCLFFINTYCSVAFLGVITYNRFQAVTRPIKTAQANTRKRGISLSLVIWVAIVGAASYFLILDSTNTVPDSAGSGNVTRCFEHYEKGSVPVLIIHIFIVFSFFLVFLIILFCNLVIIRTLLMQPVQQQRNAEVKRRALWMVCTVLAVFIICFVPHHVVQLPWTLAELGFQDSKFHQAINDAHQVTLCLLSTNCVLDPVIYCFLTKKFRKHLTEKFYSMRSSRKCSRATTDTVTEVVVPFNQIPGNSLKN

Compound	IC50 [nM]
CCc1cc(-c2cccc(OC)c2)ccc1S(=O)(=O)N[C@H]1CCC[C@@H](n2cnnc2)C1 [Compound 2Ar, 3-ethyl-3′-methoxy-N-[(1S,3R)-3-(4H-1,2,4-triazol-4-yl)cyclohexyl]biphenyl-4-sulfonamide]	27
Cc1nncn1[C@@H]1CCC[C@H](NS(=O)(=O)c2ccc(OCCCCF)cc2)C1 [Compound 2Nad, 4-(4-fluorobutoxy)-N-[(1S,3R)-3-(3-methyl-4H-1,2,4-triazol-4-yl)cyclohexyl]benzenesulfonamide]	11
O=S(=O)(N[C@H]1CCC[C@@H](n2cnnc2)C1)c1ccc(-c2noc(C3CC3)n2)cc1 [Compound 2Ml, 4-(5-cyclopropyl-1,2,4-oxadiazol-3-yl)-N-[(1S,3R)-3-(4H-1,2,4-triazol-4-yl)cyclohexyl]benzenesulfonamide]	243
CCc1cc(-c2ccc(OCC(F)(F)F)nc2)ccc1S(=O)(=O)N[C@H]1CCC[C@@H](n2cnnc2C)C1 [Compound 2Abe, 2-ethyl-N-[(1S,3R)-3-(3-methyl-4H-1,2,4-triazol-4-yl)cyclohexyl]-4-[6-(2,2,2-trifluoroethoxy)pyridin-3-yl]benzenesulfonamide]	0.2
O=S(=O)(N[C@H]1CCC[C@@H](n2cnnc2)C1)c1ccc(OCCCC(F)(F)F)cc1 [Compound 2Mac, N-[(1S,3R)-3-(4H-1,2,4-triazol-4-yl)cyclohexyl]-4-(4,4,4-trifluorobutoxy)benzenesulfonamide]	8.3
Cc1nncn1[C@@H]1CCC[C@H](NS(=O)(=O)c2ccc(-c3noc(C4CC4)n3)c(F)c2)C1 [Compound 2Fh, 4-(5-cyclopropyl-1,2,4-oxadiazol-3-yl)-3-fluoro-N-[(1S,3R)-3-(3-methyl-4H-1,2,4-triazol-4-yl)cyclohexyl]benzenesulfonamide]	9.9
CCCCCc1ccc(S(=O)(=O)N[C@H]2CCC[C@@H](n3cnnc3)C2)cc1 [Compound 2Mah, 4-pentyl-N-[(1S,3R)-3-(4H-1,2,4-triazol-4-yl)cyclohexyl]benzenesulfonamide]	13
Cc1nncn1[C@@H]1CCC[C@H](NS(=O)(=O)c2ccc(-c3noc(C4CC4)n3)cc2)C1 [Compound 2Nl, 4-(5-cyclopropyl-1,2,4-oxadiazol-3-yl)-N-[(1S,3R)-3-(3-methyl-4H-1,2,4-triazol-4-yl)cyclohexyl]benzenesulfonamide]	9.6
O=S(=O)(N[C@H]1CCC[C@@H](n2cnnc2)C1)c1ccc(-c2ccc(OCC(F)(F)F)cc2)c(F)c1 [Compound 2Eb, 2-fluoro-N-[(1S,3R)-3-(4H-1,2,4-triazol-4-yl)cyclohexyl]-4′-(2,2,2-trifluoroethoxy)biphenyl-4-sulfonamide]	0.7
O=S(=O)(N[C@H]1CCC[C@@H](n2cnnc2)C1)c1cccc(OC(F)(F)F)c1 [Compound 2Mc, N-[(1S,3R)-3-(4H-1,2,4-triazol-4-yl)cyclohexyl]-3-(trifluoromethoxy)benzenesulfonamide]	410
CCc1cc(-c2cnc3ccnn3c2)ccc1S(=O)(=O)N[C@H]1CCC[C@@H](n2cnnc2)C1 [Compound 2Aau, 2-ethyl-4-pyrazolo[1,5-a]pyrimidin-6-yl-N-[(1S,3R)-3-(4H-1,2,4-triazol-4-yl)cyclohexyl]benzenesulfonamide]	244
Cc1cn(-c2ccc(S(=O)(=O)N[C@H]3CCC[C@@H](n4cnnc4C)C3)cc2)cn1 [Compound 2Nt, 4-(4-methyl-1H-imidazol-1-yl)-N-[(1S,3R)-3-(3-methyl-4H-1,2,4-triazol-4-yl)cyclohexyl]benzenesulfonamide]	870
O=S(=O)(N[C@H]1CCC[C@@H](n2cnnc2)C1)c1ccc(Oc2ccccc2)cc1 [Compound 2Mv, 4-phenoxy-N-[(1S,3R)-3-(4H-1,2,4-triazol-4-yl)cyclohexyl]benzenesulfonamide]	51
3-(2-cyclopropylpyrimidin-4-yl)-N-[(1R,5S)-3,3-difluoro-5-(3-methyl-4H-1,2,4-triazol-4-yl)cyclohexyl]-5-(trifluoromethyl)benzenesulfonamide [Compound 9Aa]	2.2
O=S(=O)(N[C@H]1CCC[C@@H](n2cnnc2)C1)c1ccc(-c2ccc(OCC(F)(F)F)nc2)c(F)c1 [Compound 2Ef, 3-fluoro-N-[(1S,3R)-3-(4H-1,2,4-triazol-4-yl)cyclohexyl]-4-[6-(2,2,2-trifluoroethoxy)pyridin-3-yl]benzenesulfonamide]	7
CCc1cc(-c2ccc(OCC(F)(F)F)nc2)ccc1S(=O)(=O)N[C@H]1CCC[C@@H](n2cnnc2)C1 [Compound 2Aak, 2-ethyl-N-[(1S,3R)-3-(4H-1,2,4-triazol-4-yl)cyclohexyl]-4-[6-(2,2,2-trifluoroethoxy)pyridin-3-yl]benzenesulfonamide]	0.7
CCc1cc(OCCCC(F)(F)F)ccc1S(=O)(=O)N[C@H]1CCC[C@@H](n2cnnc2)C1 [Compound 2Abi, 2-ethyl-N-[(1S,3R)-3-(4H-1,2,4-triazol-4-yl)cyclohexyl]-4-(4,4,4-trifluorobutoxy)benzenesulfonamide]	2.7

The remaining compounds from weak to strong by IC50, led by results:

IC50 [nM]	Compound
81	CCc1cc(-c2ccc(F)nc2)ccc1S(=O)(=O)N[C@H]1CCC[C@@H](n2cnnc2)C1 [Compound 2Aam, 2-ethyl-4-(6-fluoropyridin-3-yl)-N-[(1S,3R)-3-(4H-1,2,4-triazol-4-yl)cyclohexyl]benzenesulfonamide]
44	CCc1cc(-c2ccccc2OC(F)(F)F)ccc1S(=O)(=O)N[C@H]1CCC[C@@H](n2cnnc2)C1 [Compound 2Aaa, 3-ethyl-N-[(1S,3R)-3-(4H-1,2,4-triazol-4-yl)cyclohexyl]2′-(trifluoromethoxy)biphenyl-4-sulfonamide]
41	CCc1cc(-c2ncc(COC)s2)ccc1S(=O)(=O)N[C@H]1CCC[C@@H](n2cnnc2)C1 [Compound 2Aba, 2-ethyl-4-[5-(methoxymethyl)-1,3-thiazol-2-yl]-N-[(1S,3R)-3-(4H-1,2,4-triazol-4-yl)cyclohexyl]benzenesulfonamide]
32	O=S(=O)(N[C@H]1CCC[C@@H](n2cnnc2)C1)c1cc(-c2cccnc2)cc(C(F)(F)F)c1 [Compound 3Ar, 3-pyridin-3-yl-N-[(1S,3R)-3-(4H-1,2,4-triazol-4-yl)cyclohexyl]-5-(trifluoromethyl)benzenesulfonamide]
19	CCc1cc(-c2cc(OC)cc(OC)c2)ccc1S(=O)(=O)N[C@H]1CCC[C@@H](n2cnnc2)C1 [Compound 2Au, 3-ethyl-3′,5′-dimethoxy-N-[(1S,3R)-3-(4H-1,2,4-triazol-4-yl)cyclohexyl]biphenyl-4-sulfonamide]
13	CCc1cc(-c2cc(C(F)(F)F)cc(C(F)(F)F)c2)ccc1S(=O)(=O)N[C@H]1CCC[C@@H](n2cnnc2)C1 [Compound 2Abo, 3-ethyl-N-[(1S,3R)-3-(4H-1,2,4-triazol-4-yl)cyclohexyl]-3′,5′-bis(trifluoromethyl)biphenyl-4-sulfonamide]
4.2	COc1ccc(-c2cc(C(F)(F)F)cc(S(=O)(=O)N[C@H]3CCC[C@@H](n4cnnc4)C3)c2)cn1 [Compound 3Af, 3-(6-methoxypyridin-3-yl)-N-[(1S,3R)-3-(4H-1,2,4-triazol-4-yl)cyclohexyl]-5-(trifluoromethyl)benzenesulfonamide]
3.9	O=S(=O)(N[C@H]1CCC[C@@H](n2cnnc2)C1)c1cc(-c2cccc(F)c2)cc(C(F)(F)F)c1 [Compound 3As, 3′-fluoro-N-[(1S,3R)-3-(4H-1,2,4-triazol-4-yl)cyclohexyl]-5-(trifluoromethyl)biphenyl-3-sulfonamide]
